Test results from ChEMBL document CHEMBL1909046, “DrugMatrix in vitro pharmacology data”.

Columns and labels:
[1] = biological target: T1, Alpha-1A adrenergic receptor (Rattus norvegicus, UniProt P43140); test: DRUGMATRIX: Alpha-1A adrenergic receptor radioligand binding (ligand: prazosin); assay type: cell membranes, Wistar, Submaxillary gland, Membrane; details: Not Active = under 50% inhibition at 10 µM
T1 sequence (P43140 whole entry): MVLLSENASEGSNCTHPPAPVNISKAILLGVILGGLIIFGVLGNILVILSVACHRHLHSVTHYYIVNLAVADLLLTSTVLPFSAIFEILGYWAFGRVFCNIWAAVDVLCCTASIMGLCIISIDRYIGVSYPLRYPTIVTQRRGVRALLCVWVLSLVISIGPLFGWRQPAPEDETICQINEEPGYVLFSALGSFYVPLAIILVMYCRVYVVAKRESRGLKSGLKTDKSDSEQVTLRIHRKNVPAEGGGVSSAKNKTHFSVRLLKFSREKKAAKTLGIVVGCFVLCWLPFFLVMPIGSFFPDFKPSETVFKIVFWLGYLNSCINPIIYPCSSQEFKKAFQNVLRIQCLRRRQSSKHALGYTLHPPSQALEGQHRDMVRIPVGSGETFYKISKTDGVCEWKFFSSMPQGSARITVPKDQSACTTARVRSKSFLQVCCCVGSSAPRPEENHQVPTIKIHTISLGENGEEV

[2] = biological target: T2, Vasoactive intestinal polypeptide receptor 1 (Homo sapiens, UniProt P32241); assay type: cell membranes, Membrane; details: ht-29; also: in other assays of this panel Not Active means under 50% inhibition at 10 µM
T2 sequence (P32241 whole entry): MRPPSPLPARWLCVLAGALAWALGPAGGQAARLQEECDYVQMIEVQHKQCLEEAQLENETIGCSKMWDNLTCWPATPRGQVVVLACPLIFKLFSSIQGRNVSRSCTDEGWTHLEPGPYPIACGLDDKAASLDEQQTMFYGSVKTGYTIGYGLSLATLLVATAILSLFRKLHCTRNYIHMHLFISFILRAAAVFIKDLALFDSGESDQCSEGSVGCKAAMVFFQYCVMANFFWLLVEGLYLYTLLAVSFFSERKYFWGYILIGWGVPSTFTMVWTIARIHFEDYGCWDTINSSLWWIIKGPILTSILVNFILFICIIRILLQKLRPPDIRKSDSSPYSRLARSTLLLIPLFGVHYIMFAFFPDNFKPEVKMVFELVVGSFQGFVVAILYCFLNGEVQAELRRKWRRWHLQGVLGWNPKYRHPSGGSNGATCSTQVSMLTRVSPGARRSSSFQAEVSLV

[3] = biological target: T3, Neuropeptide Y receptor type 2 (Homo sapiens, UniProt P49146); assay type: cell membranes, Membrane; details: kan-ts; also: in other assays of this panel Not Active means under 50% inhibition at 10 µM
T3 sequence (P49146 whole entry): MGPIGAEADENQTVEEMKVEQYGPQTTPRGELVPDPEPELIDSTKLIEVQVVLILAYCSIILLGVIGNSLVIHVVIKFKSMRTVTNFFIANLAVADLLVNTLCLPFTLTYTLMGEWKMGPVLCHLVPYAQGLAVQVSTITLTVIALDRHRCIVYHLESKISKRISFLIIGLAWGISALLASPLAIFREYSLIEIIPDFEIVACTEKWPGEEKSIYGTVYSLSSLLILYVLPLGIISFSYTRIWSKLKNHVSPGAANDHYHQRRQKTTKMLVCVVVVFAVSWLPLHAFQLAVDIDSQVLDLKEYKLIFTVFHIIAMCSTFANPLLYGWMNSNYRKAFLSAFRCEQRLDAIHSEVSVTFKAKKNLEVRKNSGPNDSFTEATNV

[4] = biological target: Vascular endothelial growth factor receptor 1 (Homo sapiens, UniProt P17948); assay type: cell-based; details: huvec; also: in other assays of this panel Not Active means under 50% inhibition at 10 µM
Vascular endothelial growth factor receptor 1, sequence (P17948 whole entry): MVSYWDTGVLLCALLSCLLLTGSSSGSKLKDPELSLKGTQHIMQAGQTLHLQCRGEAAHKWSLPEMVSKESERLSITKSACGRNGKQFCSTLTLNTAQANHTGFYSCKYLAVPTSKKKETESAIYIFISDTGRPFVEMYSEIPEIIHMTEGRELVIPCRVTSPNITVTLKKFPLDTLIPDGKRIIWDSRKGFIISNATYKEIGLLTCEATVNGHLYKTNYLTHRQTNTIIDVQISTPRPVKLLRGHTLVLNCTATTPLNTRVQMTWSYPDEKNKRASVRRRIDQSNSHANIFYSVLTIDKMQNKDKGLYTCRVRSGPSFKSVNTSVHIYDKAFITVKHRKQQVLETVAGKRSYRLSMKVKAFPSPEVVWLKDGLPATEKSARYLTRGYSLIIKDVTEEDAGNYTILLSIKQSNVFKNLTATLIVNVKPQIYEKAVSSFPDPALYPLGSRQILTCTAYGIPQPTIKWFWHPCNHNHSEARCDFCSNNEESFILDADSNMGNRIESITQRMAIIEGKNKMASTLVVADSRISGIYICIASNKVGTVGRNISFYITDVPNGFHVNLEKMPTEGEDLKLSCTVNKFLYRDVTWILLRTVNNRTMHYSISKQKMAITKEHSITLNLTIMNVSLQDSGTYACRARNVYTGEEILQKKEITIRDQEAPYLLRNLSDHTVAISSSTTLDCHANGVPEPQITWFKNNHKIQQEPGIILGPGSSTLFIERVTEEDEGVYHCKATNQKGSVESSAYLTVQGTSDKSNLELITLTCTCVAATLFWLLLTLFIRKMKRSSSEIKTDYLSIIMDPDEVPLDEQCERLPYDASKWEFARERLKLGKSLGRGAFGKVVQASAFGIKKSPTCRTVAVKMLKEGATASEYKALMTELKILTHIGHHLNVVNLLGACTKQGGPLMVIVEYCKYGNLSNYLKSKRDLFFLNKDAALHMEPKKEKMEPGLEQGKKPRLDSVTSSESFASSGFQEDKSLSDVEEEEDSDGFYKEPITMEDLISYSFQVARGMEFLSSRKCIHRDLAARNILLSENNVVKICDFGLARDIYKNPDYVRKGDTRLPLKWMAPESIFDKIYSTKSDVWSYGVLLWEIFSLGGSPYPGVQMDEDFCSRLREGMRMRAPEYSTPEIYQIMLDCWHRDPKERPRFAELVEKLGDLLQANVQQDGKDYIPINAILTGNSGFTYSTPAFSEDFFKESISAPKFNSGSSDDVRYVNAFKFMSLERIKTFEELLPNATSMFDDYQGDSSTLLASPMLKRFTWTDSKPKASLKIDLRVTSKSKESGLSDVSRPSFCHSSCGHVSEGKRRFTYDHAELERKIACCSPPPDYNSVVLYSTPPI

[5] = biological target: Delta-type opioid receptor (Homo sapiens, UniProt P41143); assay type: cell membranes, HEK293, Membrane; also: in other assays of this panel Not Active means under 50% inhibition at 10 µM
Delta-type opioid receptor, sequence (P41143 whole entry): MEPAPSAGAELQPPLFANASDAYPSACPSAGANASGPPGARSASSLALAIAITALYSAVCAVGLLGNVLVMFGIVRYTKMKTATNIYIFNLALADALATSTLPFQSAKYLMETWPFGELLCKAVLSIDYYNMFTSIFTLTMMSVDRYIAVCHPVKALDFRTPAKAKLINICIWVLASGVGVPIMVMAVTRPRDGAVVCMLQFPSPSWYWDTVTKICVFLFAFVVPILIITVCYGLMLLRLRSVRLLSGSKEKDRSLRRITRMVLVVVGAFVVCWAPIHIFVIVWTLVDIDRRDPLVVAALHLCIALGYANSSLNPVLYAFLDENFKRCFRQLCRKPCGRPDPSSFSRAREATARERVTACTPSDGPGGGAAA

[6] = biological target: T4, Type-2 angiotensin II receptor (Homo sapiens, UniProt P50052); assay type: cell-based; details: cho-k1; also: in other assays of this panel Not Active means under 50% inhibition at 10 µM
T4 sequence (P50052 whole entry): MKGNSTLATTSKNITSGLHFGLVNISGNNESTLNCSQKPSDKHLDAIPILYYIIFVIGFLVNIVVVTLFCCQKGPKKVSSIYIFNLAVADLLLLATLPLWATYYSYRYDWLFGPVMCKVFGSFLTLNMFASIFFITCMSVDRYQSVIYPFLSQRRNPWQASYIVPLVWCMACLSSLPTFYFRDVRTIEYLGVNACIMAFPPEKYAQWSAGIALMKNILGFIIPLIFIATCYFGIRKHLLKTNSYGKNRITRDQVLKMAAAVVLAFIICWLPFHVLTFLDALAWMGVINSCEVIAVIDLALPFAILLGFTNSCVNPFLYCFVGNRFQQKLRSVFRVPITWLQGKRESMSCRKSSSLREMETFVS

Carbonic anhydrase 2 = Carbonic anhydrase 2 (Homo sapiens, UniProt P00918); test: DRUGMATRIX: Carbonic Anhydrase II enzyme inhibition (substrate: 4-Nitrophenyl acetate (4-NPA)); assay type: tissue-based, Erythrocyte; details: erythrocyte; Not Active = under 50% inhibition at 10 µM
Cytochrome P450 1A2 = biological target: T5, Cytochrome P450 1A2 (Homo sapiens, UniProt P05177); details: bti-tn-5b1-4; also: in other assays of this panel Not Active means under 50% inhibition at 10 µM
T5 sequence (P05177 whole entry): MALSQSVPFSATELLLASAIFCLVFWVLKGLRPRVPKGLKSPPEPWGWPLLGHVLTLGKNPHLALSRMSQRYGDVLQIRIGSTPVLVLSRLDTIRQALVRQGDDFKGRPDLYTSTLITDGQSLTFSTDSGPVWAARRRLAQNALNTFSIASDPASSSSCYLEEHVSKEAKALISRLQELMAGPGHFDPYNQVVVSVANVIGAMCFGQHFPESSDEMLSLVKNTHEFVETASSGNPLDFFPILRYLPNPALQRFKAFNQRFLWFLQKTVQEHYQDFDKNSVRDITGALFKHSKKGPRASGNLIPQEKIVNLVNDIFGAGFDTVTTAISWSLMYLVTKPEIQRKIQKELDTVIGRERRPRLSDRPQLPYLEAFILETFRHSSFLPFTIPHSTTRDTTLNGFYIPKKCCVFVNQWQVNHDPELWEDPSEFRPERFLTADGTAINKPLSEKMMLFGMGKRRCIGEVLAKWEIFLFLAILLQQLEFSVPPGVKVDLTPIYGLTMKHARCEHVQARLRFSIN

| Compound | IC50 [1] | IC50 [2] | IC50 [3] | IC50 [4] | IC50 ([5]; hek293) | IC50 [6] | IC50 (Carbonic anhydrase 2) | IC50 (Cytochrome P450 1A2) | Ki (Cytochrome P450 1A2) | IC50 ([5]; read-out: IC50) [nM] | Ki ([5]; read-out: Ki) [nM] |
| --- | --- | --- | --- | --- | --- | --- | --- | --- | --- | --- | --- |
| C[C@]12CC[C@@H](O)C[C@@H]1CC[C@@H]1[C@@H]2CC[C@]2(C)C(=O)CC[C@@H]12 [ANDROSTERONE] | Not Active | Not Active | Not Active | Not Active | Not Active | Not Active | Not Active | Not Active | Not Active | – | – |
| O=C(O)c1ccccc1 [BENZOIC ACID] | Not Active | Not Active | Not Active | Not Active | Not Active | Not Active | Not Active | Not Active | Not Active | – | – |
| C[C@H](C(=O)O)c1ccc2oc(-c3ccc(F)cc3)nc2c1 [FLUNOXAPROFEN] | Not Active | Not Active | Not Active | Not Active | Not Active | Not Active | Not Active | Not Active | Not Active | – | – |
| C[C@H]1C[C@H]2[C@@H]3CCC4=CC(=O)C=C[C@]4(C)[C@@]3(F)[C@@H](O)C[C@]2(C)[C@@]1(O)C(=O)CO [BETAMETHASONE] | Not Active | Not Active | Not Active | Not Active | Not Active | Not Active | Not Active | Not Active | Not Active | – | – |
| CN(CCOc1ccc(C[C@H](Nc2ccccc2C(=O)c2ccccc2)C(=O)O)cc1)c1ccccn1 | Not Active | Not Active | Not Active | Not Active | – | Not Active | Not Active | Not Active | Not Active | 3210 | 1130 |
| CCN1CCN(c2cc3c(cc2F)c(=O)c(C(=O)O)cn3C2CC2)CC1 [ENROFLOXACIN] | Not Active | Not Active | Not Active | Not Active | Not Active | Not Active | Not Active | Not Active | Not Active | – | – |
| C[N+](C)(C)CCOP(=O)([O-])OC[C@H](O)CO | Not Active | Not Active | Not Active | Not Active | Not Active | Not Active | Not Active | Not Active | Not Active | – | – |
| O=C(Nc1ccc(Cl)c(Cl)c1)c1cc(Cl)cc(Cl)c1O [3,3',4',5-TETRACHLOROSALICYLANILIDE] | Not Active | Not Active | Not Active | Not Active | Not Active | Not Active | Not Active | Not Active | Not Active | – | – |
| O=C(O)COC(=O)Cc1ccccc1Nc1c(Cl)cccc1Cl [ACECLOFENAC] | Not Active | Not Active | Not Active | Not Active | Not Active | Not Active | Not Active | Not Active | Not Active | – | – |
